Measured values: publication PMC10589313 (Nature Communications, 2023)
Several values for one entry are separate records, joined by “and”; a condition that tells them apart may be missing. Equal values may be shown once.

Columns and labels:
human H4R E182A mutant = target: T1, human H4R E182A mutant (Homo sapiens, UniProt Q9H3N8, E182A); assay: TGFα shedding assay, H4R E182A mutant; type: cell-based
T1 construct: a mutant H4R (human, full-length, and untagged); expressed in transfected cells; host or cells: HEK293A
T1 sequence (Q9H3N8 whole entry E182A): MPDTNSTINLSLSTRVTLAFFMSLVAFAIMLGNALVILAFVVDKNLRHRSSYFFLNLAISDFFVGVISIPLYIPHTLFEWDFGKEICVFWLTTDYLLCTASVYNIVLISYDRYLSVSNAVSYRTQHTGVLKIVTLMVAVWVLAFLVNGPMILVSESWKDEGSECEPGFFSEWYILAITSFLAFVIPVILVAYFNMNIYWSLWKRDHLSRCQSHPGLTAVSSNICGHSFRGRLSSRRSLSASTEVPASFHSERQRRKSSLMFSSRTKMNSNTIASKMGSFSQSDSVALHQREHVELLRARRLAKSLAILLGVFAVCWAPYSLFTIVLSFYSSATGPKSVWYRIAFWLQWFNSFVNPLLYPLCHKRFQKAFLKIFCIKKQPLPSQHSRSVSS
Method: (§1) The mutants were prepared using the primers listed in Supplementary Table 2. […] The chimeric Gαq/i1 subunit comprises the Gαq backbone and Gαi1-derived six-amino acid C-terminus and couples with Gi-coupled H4R but induces a Gq-dependent TGFα shedding response. After culturing for 1 day and incubating at 37 °C in a 5% CO2 incubator, the transfected cells were harvested by trypsinization, neutralized with Dulbecco’s modified Eagle’s medium containing 10% fetal calf serum (FCS) and penicillin–streptomycin, washed once with Hank’s balanced salt solution (HBSS) containing 5 mM of HEPES (pH 7.4), and resuspended in 6 mL of the HEPES-containing HBSS. The cell suspension was seeded into a 96-well plate at a volume of […] per well (typically, 48 wells per transfected cells) and incubated for 30 min in the CO2 incubator. Test compounds (10×, diluted in 0.01% BSA and 5 mM of HEPES-containing HBSS, […] volume) were added to duplicate wells and incubated for 1 h. […] Absorbance was measured at 405 nm before and after a 1-h incubation period at 25 °C using a microplate reader (iMark™ Microplate Absorbance Reader; BioRad). Ligand-induced AP-TGFα release was calculated as previously described. […]
(§2) All functional study data were analyzed using Prism 9 (GraphPad) and are presented as mean ± standard error of the mean (SEM) of three independent experiments. […]

human H4R F344A mutant = target: T2, human H4R F344A mutant (Homo sapiens, UniProt Q9H3N8, F344A); assay: TGFα shedding assay, H4R F344A mutant; type: cell-based
T2 construct: a mutant H4R (human, full-length, and untagged); expressed in transfected cells; host or cells: HEK293A
T2 sequence (Q9H3N8 whole entry F344A): as the sequence (Q9H3N8 whole entry E182A) above, with A182E, F344A counted along it
Method: as §1, §2

human H4R F344I mutant = target: T3, human H4R F344I mutant (Homo sapiens, UniProt Q9H3N8, F344I); assay: TGFα shedding assay, H4R F344I mutant; type: cell-based
T3 construct: a mutant H4R (human, full-length, and untagged); expressed in transfected cells; host or cells: HEK293A
T3 sequence (Q9H3N8 whole entry F344I): as the sequence (Q9H3N8 whole entry E182A) above, with A182E, F344I counted along it
Method: The mutants were prepared using the primers listed in Supplementary Table 2. […] The chimeric Gαq/i1 subunit comprises the Gαq backbone and Gαi1-derived six-amino acid C-terminus and couples with Gi-coupled H4R but induces a Gq-dependent TGFα shedding response. After culturing for 1 day and incubating at 37 °C in a 5% CO2 incubator, the transfected cells were harvested by trypsinization, neutralized with Dulbecco’s modified Eagle’s medium containing 10% fetal calf serum (FCS) and penicillin–streptomycin, washed once with Hank’s balanced salt solution (HBSS) containing 5 mM of HEPES (pH 7.4), and resuspended in 6 mL of the HEPES-containing HBSS. The cell suspension was seeded into a 96-well plate at a volume of […] per well (typically, 48 wells per transfected cells) and incubated for 30 min in the CO2 incubator. Test compounds (10×, diluted in 0.01% BSA and 5 mM of HEPES-containing HBSS, […] volume) were added to duplicate wells and incubated for 1 h. After centrifugation, the conditioned medium ([…]) was transferred to an empty 96-well plate. AP reaction solution [10 mM of p-nitrophenylphosphate (p-NPP), 120 mM of Tris–HCl (pH 9.5), 40 mM of NaCl, and 10 mM of MgCl2] was dispensed into the cell culture plates and plates containing conditioned media ([…]). Absorbance was measured at 405 nm before and after a 1-h incubation period at 25 °C using a microplate reader (iMark™ Microplate Absorbance Reader; BioRad). Ligand-induced AP-TGFα release was calculated as previously described. The vehicle-treated AP-TGFα release signal was set as a baseline unless otherwise specified. AP-TGFα release signals were fitted with a four-parameter sigmoidal concentration-response curve, from which EC50 and Emax values were obtained, using GraphPad Prism 9 software (GraphPad Prism). Negative values of logarithmically transformed EC50 values (pEC50) were used to calculate the mean and standard error of independent experiments.
All functional study data were analyzed using Prism 9 (GraphPad) and are presented as mean ± standard error of the mean (SEM) of three independent experiments. Statistical analyses were performed using Prism 9 (GraphPad) with one-way analysis of variance followed by Dunnett’s post-hoc test. Values with p < 0.05 are considered statistically significant.

H3R = details: read-out: binding affinity for H3R; cited from earlier work
H1R = details: in words; cited from earlier work
[1] = Imetit (M) -5 (log concentration), raw replicate values

## N=C(N)SCCc1cnc[nH]1 [Imetit, imetit]
Human H4R E182A mutant
  EC50: > 10 µM
Human H4R E182A mutant; [1]
  Shedding assay response, E182A: 0.5777 and -0.6527 and 0.544 and 1.716 and -0.08867 and -2.204 and 4.0352 and 2.359 and 1.291
Human H4R F344A mutant
  EC50: > 10 µM
Human H4R F344A mutant; [1]
  Shedding assay response, F344A: 3.594 and 4.917 and 1.113 and -1.672 and 3.266 and -0.2412 and 0.127 and -2.198 and -1.529
Human H4R F344I mutant
  EC50: > 10 µM
Human H4R F344I mutant; F344I (H1R mimic) mutant vs wild type
  signaling activity at mutant, in words: loss of imetit activity
Human H4R F344I mutant; [1]
  Shedding assay response, F344I: 1.112 and 4.483 and 7.185 and 5.21 and 4.635 and 3.564 and 4.726 and 4.072 and 2.0567
H3R
  Ki: 0.0003 µM
H1R
  binding to H1R: does not bind
